The target in series [1] is human Lck kinase (Homo sapiens, UniProt P06239). The series is described as follows: Lck inhibition assay (spectrophotometric coupled-enzyme assay). The series is classed as biochemical. On the procedure:
The compounds are evaluated as inhibitors of human Lck kinase using a spectrophotometric assay.
An assay buffer solution was prepared which consisted of 25 mM HEPES (pH 7.5), 10 mM MgCl2, 250 μM NADH, 3 mM phosphoenolpyruvate, 43 μg/mL pyruvate kinase, 14 μg/mL lactate dehydrogenase, 560 μM ATP and 67 nM Lck. To 60 μL of this solution, in a 96 well plate, was added 2 μL of test compound stock solution in DMSO and the mixture allowed to equilibrate for 10 minutes at 30° C. The enzyme reaction was initiated by the addition of 5 μL 15 mg/mL poly Glu, Tyr (4:1) prepared in 25 mM HEPES (pH 7.5). Final assay concentrations of Lck and ATP are 60 nM and 500 μM respectively. Initial rate data was determined from the rate of change of absorbance at 340 nm (corresponding to stoichiometric consumption of NADH) using a Molecular Devices Spectramax plate reader (Sunnyvale, Calif.) over 10 min at 30° C. For each Ki determination 8 data points covering the test compound concentration range of 0-7.5 μM are obtained in duplicate. Ki values are calculated from initial rate data by non-linear regression using the Prism software package (Prism 4.0a, Graphpad Software, San Diego, Calif.).

The target in series [2] is human Src kinase (Homo sapiens, UniProt P12931). Nature of the series: Src inhibition assay (spectrophotometric coupled-enzyme assay). The series is classed as biochemical. The following applies: 25 nM Src, 100 μM ATP, poly Glu,Tyr (4:1), 30° C. On the procedure:
The compounds are evaluated as inhibitors of human Src kinase using a spectrophotometric assay.
An assay buffer solution was prepared which consisted of 25 mM HEPES (pH 7.5), 10 mM MgCl2, 250 μM NADH, 3 mM phosphoenolpyruvate, 60 μg/mL pyruvate kinase, 21 μg/mL lactate dehydrogenase, 113 μM ATP and 28 nM Src. To 60 μL of this solution, in a 96 well plate, was added 2 μL of test compound stock solution in DMSO and the mixture allowed to equilibrate for 10 mins at 30° C. The enzyme reaction was initiated by the addition of 5 μL 10 mg/mL poly Glu, Tyr (4:1) prepared in 25 mM HEPES (pH 7.5). Final assay concentrations of Src and ATP were 25 nM and 100 μM respectively. Initial rate data was determined from the rate of change of absorbance at 340 nm (corresponding to stoichiometric consumption of NADH) using a Molecular Devices Spectramax plate reader (Sunnyvale, Calif.) over 10 mins at 30° C. For each Ki determination 8 data points covering the test compound concentration range of 0-7.5 μM were obtained in duplicate. Ki values were calculated from initial rate data by non-linear regression using the Prism software package (Prism 4.0a, Graphpad Software, San Diego, Calif.).

A short description of series [3]: Solubility under the Lck assay conditions. The series is classed as physicochemical. The following applies: Lck assay buffer conditions.
The mark [4] stands for this setting: 60 nM Lck, 500 μM ATP, poly Glu,Tyr (4:1), 30° C., read-out: Ki value, inhibition of Lck.

Read-outs that look alike come from different tables or passages of the source.

human Src kinase, sequence (P12931 whole entry): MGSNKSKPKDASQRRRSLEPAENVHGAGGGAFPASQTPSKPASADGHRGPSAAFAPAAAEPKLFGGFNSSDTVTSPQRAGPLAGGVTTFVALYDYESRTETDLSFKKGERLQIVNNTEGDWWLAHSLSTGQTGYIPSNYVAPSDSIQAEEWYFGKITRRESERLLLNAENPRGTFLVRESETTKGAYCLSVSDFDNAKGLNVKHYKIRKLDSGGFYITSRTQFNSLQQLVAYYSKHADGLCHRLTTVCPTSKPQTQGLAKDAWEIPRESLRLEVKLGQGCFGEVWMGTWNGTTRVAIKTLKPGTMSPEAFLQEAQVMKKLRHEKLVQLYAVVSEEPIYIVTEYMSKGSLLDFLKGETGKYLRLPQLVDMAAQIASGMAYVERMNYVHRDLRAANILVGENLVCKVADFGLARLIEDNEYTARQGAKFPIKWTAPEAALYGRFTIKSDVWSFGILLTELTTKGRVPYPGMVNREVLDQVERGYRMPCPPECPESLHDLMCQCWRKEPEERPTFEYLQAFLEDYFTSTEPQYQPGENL
human Lck kinase, sequence (P06239 whole entry): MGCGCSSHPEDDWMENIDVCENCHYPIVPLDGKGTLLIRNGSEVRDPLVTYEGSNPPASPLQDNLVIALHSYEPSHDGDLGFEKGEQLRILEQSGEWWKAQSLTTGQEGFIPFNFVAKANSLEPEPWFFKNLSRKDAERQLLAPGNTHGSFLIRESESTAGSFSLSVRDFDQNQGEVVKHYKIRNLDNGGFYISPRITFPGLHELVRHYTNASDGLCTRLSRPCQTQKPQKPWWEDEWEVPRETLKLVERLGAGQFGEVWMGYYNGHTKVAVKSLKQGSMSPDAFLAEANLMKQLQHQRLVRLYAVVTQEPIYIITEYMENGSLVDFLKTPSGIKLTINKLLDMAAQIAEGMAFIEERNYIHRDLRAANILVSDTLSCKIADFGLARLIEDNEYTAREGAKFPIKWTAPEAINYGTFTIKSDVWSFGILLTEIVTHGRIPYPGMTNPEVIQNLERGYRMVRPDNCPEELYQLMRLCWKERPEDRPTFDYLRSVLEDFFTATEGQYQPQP

For `NC(=O)c1cn(C2CCCC2)nc1-c1ccc(Oc2ccccc2)cc1` [Compound I-2, 1-Cyclopentyl-3-(4-phenoxyphenyl)-1H-pyrazole-4-carboxamide], the Ki (commonly the equilibrium dissociation constant of an inhibitor or competing ligand from its target) in series [1] (setting [4]) is 100 to 500 nM; in series [2], more than 1000 nM.

As for `NC(=O)c1sc(C2CCCCC2)nc1-c1ccc(Oc2ccccc2)cc1` [Compound I-4], the “solubility under the assay conditions” value in series [3] is listed as “relatively low”. The inhibition constant (Ki) is less than 1000 nM in series [1] (read-out: Ki value, inhibition of Lck (expected)) and more than 1000 nM in series [2].

As to `NC(=O)c1[nH]c(C2CCCC2)nc1-c1ccc(Oc2ccccc2)cc1` [Compound I-1], the Ki in series [1] (setting [4]) was less than 100 nM; in series [2] it was 100 to 500 nM.

`NC(=O)c1sc(C2CCCC2)nc1-c1ccc(Oc2ccccc2)cc1` [Compound I-3, 2-Cyclopentyl-4-(4-phenoxyphenyl)thiazole-5-carboxamide]: the Ki in series [1] (setting [4]) was 100 to 500 nM; in series [2] it was more than 1000 nM.

(Values after US8865751B2, “Thiazoles, imidazoles, and pyrazoles useful as inhibitors of protein kinases” (Vertex Pharmaceuticals Incorporated, priority 2006, dated 2014).)
